From ChEMBL document CHEMBL1667758, “Synthesis and biological activity of novel inhibitors of topoisomerase I: 2-aryl-substituted 2-bis-1H-benzimidazoles” (Eur J Med Chem, 2011) come the findings set out here.

The nature of data set [1]: Cytotoxicity against human U87 cells after 72 hrs by MTT assay. The data set is classed as functional, cell-based, U-87MG ATCC. The conditions noted are these: U-87 MG. (Tetrazolium assays rely on reduction of a dye to a coloured formazan, in cell work by metabolically active cells.)
Data set [2] deals with HeLa. As to the kind of experiment: cells. The conditions noted are these: Homo sapiens, 72 h.
Description: Cytotoxicity against human HeLa cells after 72 hrs by MTT assay
The species named for data set [3] is Homo sapiens. The data set is described as follows: Inhibition of human purified topoisomerase 1b-mediated relaxation of supercoiled pBS (SK+) DNA at 10 uM after 30 mins by agarose gel electrophoresis.
In data set [4] the test system is MCF7. As to the kind of experiment: cells. The settings on record: Homo sapiens, MCF7, 72 h.
Description: Cytotoxicity against human MCF7 cells after 72 hrs by MTT assay
The species entered for data set [5] is Homo sapiens. As to the kind of experiment: Inhibition of human purified topoisomerase 1b-mediated relaxation of supercoiled pBS (SK+) DNA at 50 uM after 30 mins by agarose gel electrophoresis.
Data set [6] can be described thus: Lipophilicity, log P of the compound. The data set is classed as physicochemical. The settings on record: octanol/water.
Data set [7] relates to Calf thymus DNA. As to the kind of experiment: Binding affinity to calf thymus DNA assessed as hypochromicity at DNA/drug ratio 4 after 15 mins by UV-vis spectrophotometer analysis. The data set is classed as nucleic-acid assay. The settings on record: Bos taurus.
Data set [8] is filed under the species Homo sapiens. As to the kind of experiment: Inhibition of human purified topoisomerase 1b-mediated relaxation of supercoiled pBS (SK+) DNA at 75 uM after 30 mins by agarose gel electrophoresis.
Data set [9] deals with Calf thymus DNA. The data set is described as follows: Binding affinity to calf thymus DNA after 5 mins by fluorescence assay. Type of data set: nucleic-acid assay. The settings on record: Bos taurus.
Data set [10] concerns HeLa. As to the kind of experiment: Ratio of compound IC50 to Hoechst 33342 IC50 for human HeLa cells. Type of data set: functional.
Data set [11] is described as follows: Ratio of compound IC50 to Hoechst 33342 IC50 for human U87 cells. Type of data set: functional, U-87MG ATCC.
Data set [12] is filed under the species Homo sapiens. The data set is described as follows: Inhibition of human purified topoisomerase 1b-mediated relaxation of supercoiled pBS (SK+) DNA at 25 uM after 30 mins by agarose gel electrophoresis.
The subject of data set [13] is MCF7. The data set is described as follows: Ratio of compound IC50 to Hoechst 33342 IC50 for human MCF7 cells. The data set is classed as functional.
Data set [14] deals with HeLa. As to the kind of experiment: Ratio of compound IC50 to camptothecin IC50 for human HeLa cells. The data set is classed as functional.

Active and inactive are the calls of the source. No cut-off for these calls is given here.

As for `CC[C@@]1(O)C(=O)OCc2c1cc1n(c2=O)Cc2cc3ccccc3nc2-1` [CAMPTOTHECIN], the results for the IC50 (in data set [1]; with HeLa [2]; in the data set with MCF7 [4]) were 500 nM, 1500 nM and 650 nM, respectively. The inhibition in the data set listed under Homo sapiens [3] was determined as 80%.

`COc1ccc(-c2nc3cc(-c4nc5cc(N6CCN(C)CC6)ccc5[nH]4)ccc3[nH]2)cc1OC`: the inhibition in the data set listed under Homo sapiens [5] and in the data set filed under Homo sapiens [8] was 90% each time. Besides, the IC50 in data set [1] was above 100000 nM; with HeLa [2] it was 3400 nM; in the data set on MCF7 [4], 5300 nM. The same compound yielded a lipophilicity (logP) in data set [6] of 3.48. Moreover, the Activity in the data set on Calf thymus DNA [7] was found to be 1%.

In the case of `CCOc1ccc(-c2nc3cc(-c4nc5cc(N6CCN(C)CC6)ccc5[nH]4)ccc3[nH]2)cc1`, the result in the data set with Calf thymus DNA [9] was Active. The IC50 turned out to be 4200 nM in data set [1], 300 nM in the data set with HeLa [2] and 500 nM in the data set on MCF7 [4]. In data set [6], the logP amounted to 3.95. For the same compound, the Activity in the data set with Calf thymus DNA [7] was found to be 38%. Further, the “Ratio IC50” value in the data set on HeLa [10] was 2.

As to `CN1CCN(c2ccc3nc(-c4ccc5nc(-c6ccc(Cl)cc6Cl)[nH]c5c4)[nH]c3c2)CC1`, the outcome with Calf thymus DNA [9] and in the data set filed under Homo sapiens [12] was Active. Also, the IC50 amounted to 1500 nM in data set [1], 600 nM with HeLa [2] and 1300 nM in the data set with MCF7 [4]. In addition, the logP in data set [6] was 4.85. In the data set on Calf thymus DNA [7], the Activity was 28%. Also, the entries for the “Ratio IC50” value (in data set [11]; with MCF7 [13]; in the data set with HeLa [14]) were 2.8, 2.6 and 3, respectively.

As to `COc1cc(-c2nc3ccc(-c4nc5ccc(N6CCN(C)CC6)cc5[nH]4)cc3[nH]2)cc(OC)c1OC`, the inhibition in the data set listed under Homo sapiens [5] and in the data set filed under Homo sapiens [8] was 90% throughout. Also, the 50% inhibitory concentration (IC50) in [1] was above 100000 nM; in the data set with HeLa [2], 29300 nM; in the data set on MCF7 [4], 16800 nM. The logP in data set [6] came out at 3.36. Besides, the Activity with Calf thymus DNA [7] was found to be 27%.

As to `CN1CCN(c2ccc3nc(-c4ccc5nc(-c6ccc(F)cc6F)[nH]c5c4)[nH]c3c2)CC1`, the outcome in the data set on Calf thymus DNA [9] and in the data set listed under Homo sapiens [12] was Active. The IC50 in data set [1] was 5500 nM; in the data set on HeLa [2], 1500 nM; in the data set with MCF7 [4] it was 5500 nM. This compound also gave a logP in data set [6] of 4.05. Moreover, in the data set with Calf thymus DNA [7], the Activity was -20%.

As usually defined, the IC50 is the point on the concentration scale where inhibition reaches its midpoint. A high value points to weaker potency in that assay. As a reminder, the inhibition is the drop in the measured response relative to a control, in per cent. Usually logP stands for a log measure of how a compound divides between an organic and an aqueous phase.
